Measured values from patent US20060270694A1, “JAK kinase inhibitors and their uses” (Rigel Pharmaceuticals, Inc., priority 2005, published 2006).

System: JAK kinase (JAK1 and JAK3)
Assay: IL-4 activation assay: CD23 upregulation in IL-4 stimulated Ramos B-cells, FACS
Format: cell-based, human
Protocol: The selectivity of the compounds illustrated in TABLES 1 and 2 for JAK kinases as compared to Syk kinase was confirmed in cellular assays designed to test for JAK and Syk inhibition. Briefly, JAK inhibition was tested in human Ramos B-cells activated with IL-4. Twenty to 24 hours post stimulation, the cells are stained for upregulation of CD23 and analyzed by FACS. Stimulation of the B-cells with IL-4 leads to the activation of the JAK/STAT pathway through phosphorylation of the JAK kinase JAK1 and JAK3, which in turn phosphorylate and activate transcription of factor […].
For the assay, human Ramos B-cells (ATCC, Catalog No. CRL-1596) are cultured in RPMI 1640 medium (Cellgro, Catalog No. 10-040-CM) containing 10% fetal bovine serum (JRH, Catalog No. 12106-500M) according to the propagation protocol supplied with the cells, and maintained at a density of approximately 3.5×10^5 cells/ml. The day before the assay, the cells are diluted to 3.5×10^5 cells/ml to insure they are in the logorithmic growth phase. The cells are spun down, and suspended in RPMI 1640 medium containing 5% fetal bovine serum to a density of 3.5×10^4 cells/ml and aliquots dispensed into a 96-well tissue culture plate. Cells are incubated with test compound (dissolved in DMSO) or DMSO (control) for 1 hr at 37° C. and then stimulated with IL-4 (Pepotech, Catalog No. 200-04) for 20-24 hours (final concentration is 50 Units/ml). Cells are then spun down, stained with anti-CD23-PE antibody (BD Pharmigen, Catalog No.555711) and analyzed by FACS.

[1] = TABLE 2, IC50 CHMC degranulation (tryptase) / IC50 IL-4 Ramos CD23
[2] = TABLE 1, IC50 CHMC degranulation / IC50 IL-4 Ramos CD23, minimum ratio, calculated using Syk IC50 of 50 μM (upper limit of assay)

SMILES | IC50 Ratio (Syk/JAK) [1] | IC50 Ratio (Syk/JAK) [2]
CCN(CC)CCNC(=O)c1ccc(Nc2ncc(F)c(Nc3ccc(Cl)c(OC)c3)n2)cc1 [Cmpd 48] | 28 | 
CN1CCN(c2ccc(Nc3ncc(F)c(NC4CCCC4)n3)cc2Cl)CC1 [Cmpd 72] | 14 | 
CCCCOc1ccc(Nc2nc(Nc3ccc4c(c3)OCCO4)ncc2F)cc1 [Cmpd 17] |  | 20
CNC(=O)CNC(=O)c1ccc(Nc2ncc(F)c(Nc3ccc4c(c3)NC(=O)C(C)(C)O4)n2)cc1 [Cmpd 70] | 15 | 
CN1CCN(c2cccc(Nc3ncc(F)c(Nc4ccc5c(n4)NCCO5)n3)c2)CC1 [Cmpd 40] | 32 | 
COC(=O)CNC(=O)c1ccc(Nc2ncc(F)c(Nc3ccc(C(N)=O)cc3)n2)cc1 [Cmpd 73] | 14 | 
COC(=O)c1ccc(Nc2ncc(F)c(Nc3ccc(C(=O)OC)cc3)n2)cc1 [Cmpd 61] | 20 | 
COc1ccc(Nc2nc(Nc3cc(Cl)c(O)c(Cl)c3)ncc2F)cc1Cl [Cmpd 80] | 11 | 
COc1ccc(Nc2nc(Nc3cccc(-c4ncco4)c3)ncc2F)cc1OC [Cmpd 45] | 30 | 
CCN(CC)CCNC(=O)c1ccc(Nc2ncc(F)c(Nc3ccc(Cl)c(Cl)c3)n2)cc1 [Cmpd 59] | 21 | 
Cc1noc(COc2ccc(Nc3nc(Nc4cc(Cl)c(O)c(Cl)c4)ncc3F)cc2)n1 [Cmpd 4] |  | 145
O=C(O)C1CCC(Nc2nc(Nc3ccc4c(c3)OCCO4)ncc2F)CC1 (stereo not shown) [Cmpd 18] |  | 20
Fc1cnc(Nc2ccc3c(c2)OCCO3)nc1NC1CCCCC1 [Cmpd 19] |  | 15
COC(=O)c1cc(Nc2ncc(F)c(Nc3ccc4c(c3)OCCO4)n2)cc(-c2ncco2)c1 [Cmpd 5] |  | 105
COc1ccc(Nc2nc(Nc3cc(Cl)c(OC)c(Cl)c3)ncc2F)cc1Cl [Cmpd 21] |  | 14
CNC(=O)COc1cccc(Nc2ncc(F)c(Nc3ccc4c(c3)C(N(C)C(=O)OC(C)(C)C)CCO4)n2)c1 (stereo not shown) [Cmpd 86] | 10 | 
CCN(CC)CCNC(=O)c1ccc(Nc2ncc(F)c(Nc3cc(OC)cc(OC)c3)n2)cc1 [Cmpd 47] | 29 | 
CC(=O)N(C)c1ccc(Nc2ncc(F)c(N3CCN(C)CC3)n2)cc1 [Cmpd 20] |  | 14
Fc1cnc(Nc2cccc(-c3ncco3)c2)nc1Nc1cc(C2CC2)n[nH]1 [Cmpd 29] | 109 | 
Cc1cc(Nc2ncc(F)c(N[C@@H]3CC=CC[C@H]3C(N)=O)n2)ccc1N1CCN(C)CC1 [Cmpd 14] |  | 25

SMILES | IC50 Ratio (Syk/JAK) [1] | IC50 Ratio (Syk/JAK) [2]
CNC(=O)n1ccc2ccc(Nc3nc(Nc4cc(C)cc(C)c4)ncc3F)cc21 [Cmpd 7] |  | 57
COc1ccc(Nc2ccnc(Nc3ccc(OC)c(-c4ccccc4)c3)n2)cc1-c1ccccc1 [Cmpd 15] |  | 24
CNC(=O)CNC(=O)c1ccc(Nc2ncc(F)c(Nc3ccc4c(c3)C(N)CCO4)n2)cc1 (stereo not shown) [Cmpd 53] | 24 | 
CCN(CC)CCNC(=O)c1ccc(Nc2ncc(F)c(Nc3ccc4c(c3)NC(=O)C(CCO)O4)n2)cc1 (stereo not shown) [Cmpd 33] | 57 | 
CNC(=O)CNC(=O)c1ccc(Nc2ncc(F)c(Nc3ccc(OC)c(Cl)c3)n2)cc1 [Cmpd 66] | 17 | 
COc1c(C)cc(Nc2ncc(F)c(NC3=NCCN3)n2)cc1C [Cmpd 43] | 31 | 
COc1cc(OC)cc(N(C)c2nc(Nc3cc(C)cc(C)c3)ncc2F)c1 [Cmpd 35] | 44 | 
CCOC(=O)c1cnc(Nc2ccc3[nH]ncc3c2)nc1Nc1ccc2[nH]ncc2c1 [Cmpd 10] |  | 43
CN1CCN(c2ccc(Nc3ncc(F)c(NC4CCCC4C(N)=O)n3)cc2Cl)CC1 (stereo not shown) [Cmpd 87] | 10 | 
NC(=O)c1ccc(Nc2ncc(F)c(Nc3ccc(C(N)=O)cc3)n2)cc1 [Cmpd 46] | 30 | 
CNC(=O)COc1cc(Nc2ncc(F)c(Nc3cccc(O)c3)n2)cc(OCC(=O)NC)c1 [Cmpd 31] | 74 | 
CN1CCN(C(=O)CNc2cccc(Nc3ncc(F)c(Nc4cccc(NCCO)c4)n3)c2)CC1 [Cmpd 56] | 21 | 
COC(=O)c1ccc(Nc2ncc(F)c(Nc3ccc(OC)c(Cl)c3)n2)cc1 [Cmpd 25] |  | 13
COc1ccc(Nc2nc(Nc3ccc(N4CCN(C)CC4)c(C#N)c3)ncc2F)cc1Cl [Cmpd 36] | 43 | 
Cc1noc(COc2ccc(Nc3nc(Nc4ccc(C(N)=O)cc4)ncc3F)cc2)n1 [Cmpd 82] | 10 | 
CC(C)Nc1nc(Nc2cccc(N3CCN(C)CC3)c2)ncc1F [Cmpd 11] |  | 38
COC(=O)CNC(=O)c1ccc(Nc2nc(Nc3cccc(O)c3)ncc2F)cc1 [Cmpd 88] | 10 | 
O=C(Nc1ccc(Nc2ncc(F)c(NC3CCCCC3)n2)cc1)c1ccccc1 [Cmpd 74] | 14 | 
COc1ccc(Nc2ncc(F)c(Nc3ccc(OCc4nc(C)no4)cc3)n2)cc1Cl [Cmpd 51] | 25 | 
NC(=O)c1ccc(Nc2ncc(F)c(NC3CCCC3)n2)cc1 [Cmpd 6] |  | 70

SMILES | IC50 Ratio (Syk/JAK) [1] | IC50 Ratio (Syk/JAK) [2]
Oc1cccc(Nc2ncc(F)c(Nc3cccc(-c4nnc(-c5ccccc5)o4)c3)n2)c1 [Cmpd 12] |  | 36
CNC(=O)c1cc(Nc2ncc(F)c(Nc3ccc(OC)c(Cl)c3)n2)ccc1N1CCN(C)CC1 [Cmpd 55] | 23 | 
NC(=O)c1ccc(Nc2ncc(F)c(Nc3ccc4c(c3)NC(=O)C(CCO)O4)n2)cc1 (stereo not shown) [Cmpd 60] | 20 | 
CN1CCN(c2ccc(Nc3ncc(F)c(Nc4cc(C5CC5)n[nH]4)n3)cc2Cl)CC1 [Cmpd 30] | 85 | 
COc1ccc(N(C)c2nc(Nc3cccc(-c4ncco4)c3)ncc2F)cc1OC [Cmpd 41] | 32 | 
CCN(CC)CCNC(=O)c1ccc(Nc2ncc(F)c(Nc3ccc(OCc4nc(C)no4)cc3)n2)cc1 [Cmpd 34] | 55 | 
Cc1cc(Nc2ncc(F)c(NC3CCCC3C(N)=O)n2)ccc1N1CCN(C)CC1 (stereo not shown) [Cmpd 2] |  | 155
NCc1ccc(Nc2ncc(F)c(Nc3ccc(CN)cc3)n2)cc1 [Cmpd 32] | 65 | 
C[C@@H]1Oc2ccc(Nc3nc(Nc4ccc(C(N)=O)cc4)ncc3F)cc2NC1=O [Cmpd 42] | 32 | 
Cc1cc(Nc2nc(Nc3ccc(C(N)=O)c(Cl)c3)ncc2F)ccc1N1CCN(C)CC1 [Cmpd 89] | 10 | 
CN1CCN(c2ccc(Nc3ncc(F)c(NC4CCC4)n3)cc2CO)CC1 [Cmpd 39] | 59 | 
CCN(CC)CCNC(=O)c1ccc(Nc2ncc(F)c(Nc3ccc4c(c3)NC(=O)[C@H](C)O4)n2)cc1 [Cmpd 27] | 247 | 
COC(=O)CNC(=O)c1ccc(Nc2ncc(F)c(Nc3ccc(OCc4nc(C)no4)cc3)n2)cc1 [Cmpd 67] | 17 | 
Cc1ccc(Nc2ccnc(Nc3ccc(C)c([N+](=O)[O-])c3)n2)cc1[N+](=O)[O-] [Cmpd 3] |  | 147
Cc1cc(Nc2ncc(F)c(NC3CCCC3)n2)cnc1N1CCN(C)CC1 [Cmpd 77] | 13 | 
N#Cc1ccc(Nc2ncc(F)c(Nc3ccc(C#N)cc3)n2)cc1 [Cmpd 54] | 24 | 
CNC(=O)C1=Cc2cccc(Nc3ncc(F)c(Nc4cc(C)cc(C)c4)n3)c2C1 [Cmpd 13] |  | 26
CNC(=N)COc1ccc(Nc2nc(Nc3ccc4c(c3)OCCO4)ncc2F)cc1 [Cmpd 81] | 11 | 
